The source of these data is patent US20150344535A1, “NEUROTROPHIN-TYROSINE KINASE RECEPTOR SIGNALING” (THE UNIVERSITY OF QUEENSLAND, priority 2012, published 2015).

Assay [1] relates to PC12 cells. Description: PC12 cell neurite outgrowth in response to EGF. Type of assay: cell-based. The following applies: EGF plus secretase inhibitor, 5 days. How it is done:
(§1) To assess the effect of p75^NTR constructs (FIG. 2) or c29 peptide on TrkA-mediated neuritogenesis, transfected PC12 cells were grown in the presence of 100 ng/ml NGF for 3 days, with fresh medium and NGF treatments added on day 2. Cells were then imaged live on an Olympus (IX81) microscope fitted with a CO2 atmospheric chamber, using analySIS software. Four random images of 80-100 cells were taken for each treatment condition and images were determined by measuring polygon neurite length of all cells in each image. Data analysis was performed using Graphpad PRISM.
To determine whether the effect of the c29 peptide on enhancement of neurite outgrowth was NGF and TrkA specific, we repeated the experiment using EGF to stimulate differentiation.

Assay [2] has as its system PC12 cells. Description: PC12 cell neurite outgrowth in response to NGF. It is filed as cell-based. The settings on record: NGF plus secretase inhibitor over 5 days.
Assay [3] deals with PC12 cells. Description: PC12 cell neurite outgrowth in response to NGF. Type of assay: cell-based. The settings on record: fragments incubated with PC12 cells and NGF, FIG. 16. As to the method:
as §1
Once PC12 cells are fully differentiated, they become dependent on NGF for survival (Greene, 1978), but can survive if grown in the presence of lower concentrations of NGF (Greene and Tischler, 1976). To determine if c29 could potentiate TrkA-mediated signals, PC12 cells were cultured in the presence of NGF concentrations ranging from 1-100 ng/ml for 5 days, following serum starvation and pre-incubation with c29, scrambled control peptide or no peptide (FIG. 5A). […] Peptides (1 μM) were added to the cultures every 48 hours at the time of NGF addition and medium exchange.

The next assay concerns TrkA. Kind of assay: Biotinylated peptide pull down of TrkA. It is filed as binding. The following applies: TrkA pull downs, FIG. 15F. As to the method:
For peptide pull down assays, the biotinylated c29 or LC1 control peptides were incubated with protein A-sepharose beads or Dynabeads MyOne Streptavidin T1 (Invitrogen) overnight at 4° C. Cell lysates were then added to the peptide-protein A-sepharose complex or Dynabeads MyOne Streptavidin T1 and incubated for 3 hours at 4° C. Peptide-receptor complexes were washed extensively with RIPA lysis buffer and eluted by boiling in Laemmli sample buffer. For p75^NTR construct immunoprecipitations, HEK293 cells were treated with NGF at 50 ng/ml for 10 minutes 48 hours after transfection with 1 μg DNA per well. Cells were immediately harvested in ice-cold phosphate buffered saline (PBS) and washed twice, then lysed in 1 ml of lysis buffer. Cell lysates were pre-cleared in 75 μl (1:2) protein-G sepharose: PBS by rotation end-over-end for 2 hours at 4′C. Lysates were then incubated with 3-5 μg antibody, either mouse-anti-YFP/GFP (Roche) or rabbit-anti-human p75^NTR intracellular domain antibody (Promega), and rotated end-over-end for 2 hours at 4° C.
Immunoprecipitation was performed by the addition of 75 μl (1:2) protein-G sepharose: PBS and incubation end-over-end for 16 hours at 4° C. The immunoprecipitate was washed 4 times with 1 ml of PBS then eluted in 60 μl 2×LDS sample buffer. For immunoblotting, samples were boiled for 5 minutes, separated by SDS-PAGE and transferred onto nitrocellulose membranes, then western blotted using standard protocols (see Example 1 for antibodies used).
The c29 peptide was labelled with biotin and attached to a sepharose bead column. Lysates from cells was passed over the column followed by several wash steps. The proteins that bound to the c29 peptide (proteins that are pulled down) were eluted from the column with SDS buffer and separated in size by SDS-PAGE electrophoresis. The gel was Western blotted and the membrane probed with antibodies to proteins of interest.

Regarding `CC(C)C[C@H](CC(=O)NO)C(=O)N[C@H](C(=O)N[C@@H](C)C(=O)NCCN)C(C)(C)C` [TAPI-2, N—(R)-(2-(Hydroxyaminocarbonyl)Methyl)-4-Methylpentanoyl-L-t-Butyl-Glycine-L-Alanine 2-Aminoethyl Amide], the “PC12 cell differentiation induced by EGF” value in the assay on PC12 cells [1] is “neither the α- nor the γ-secretase inhibitor had any significant effect”. The neurite length in the assay with PC12 cells [2] is given as 20 μm. Consider `C[C@H](NC(=O)Cc1cc(F)cc(F)c1)C(=O)N[C@H]1N=C(c2ccccc2)c2ccccc2N(C)C1=O` [compound E, (S,S)-2-[2-(3,5-Difluorophenyl)-acetylamino]-N-(1-methy-2-oxo-5-phenyl-2,3-dihydro-1H-benzo[e][1,4]diazepin-3-yl)-propionamide], for which, in the assay on PC12 cells [1], the “PC12 cell differentiation induced by EGF” value is listed as “neither the α- nor the γ-secretase inhibitor had any significant effect”. Further, in the assay on PC12 cells [2], the neurite length came out at 20 μm. On to “(22-29): truncated peptide fragment of c29, residues 22-29 (PPPEGEKL)”, for which, in the assay with PC12 cells [3], the neurite growth entry is recorded as “stimulated neurite growth”. In addition, the “TrkA binding of biotinylated fragments” value in the assay with TrkA was “clearly bind TrkA”. ARWNSC [c1-6K1A]: the neurite growth result in the assay on PC12 cells [3] is “stimulated neurite growth”. As for KRWASA [c1-6C6A], the neurite growth result with PC12 cells [3] is listed as “stimulated neurite growth”.

KRWASC [c1-6N4A]: in the assay on PC12 cells [3], the neurite growth result was “stimulated neurite growth”. Turning to “KRWNSC (c1-6 - Fragment of p75ICD) [(1-6)]”, the neurite growth result with PC12 cells [3] is recorded as “stimulated neurite growth”. For the same molecule, in the assay with TrkA, the “TrkA binding of biotinylated fragments” value is reported as “clearly bind TrkA”.

Regarding “KRWNSCKQNKQGAN (c1-14 - Fragment of p75ICD) [(1-14)]”, in the assay on PC12 cells [3], the neurite growth result is on record as “stimulated neurite growth”. Moreover, the “TrkA binding of biotinylated fragments” value with TrkA is listed as “clearly bind TrkA”.

On to “SRPVNQTPPPEGEKL (c15-29 - Fragment of p75ICD) [(15-29)]”, for which the neurite growth entry in the assay with PC12 cells [3] was “stimulated neurite growth”. In addition, in the assay with TrkA, the “TrkA binding of biotinylated fragments” value is given as “clearly bind TrkA”.
